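Exposure lasted 48 hours, with cells grown in 96-well plates and compounds tested at five concentrations. At the TGI there is no net growth.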
Tests used:
Test in all cases: NCI tumour cell line growth inhibition, 48 h
COLO 205 colon = system: COLO 205 colon
OVCAR-3 ovarian = system: OVCAR-3 ovarian
T-47D breast = system: T-47D breast
SK-MEL-2 melanoma = system: SK-MEL-2 melanoma
SK-MEL-5 melanoma = system: SK-MEL-5 melanoma
SF-295 CNS = system: SF-295 CNS
786-0 renal = system: 786-0 renal
HT29 colon = system: HT29 colon
MDA-MB-435 = system: MDA-MB-435
HCT-116 colon = system: HCT-116 colon
A549 NSCLC = system: A549 NSCLC
DU-145 prostate = system: DU-145 prostate
OVCAR-5 ovarian = system: OVCAR-5 ovarian
HOP-92 NSCLC = system: HOP-92 NSCLC
IGROV1 ovarian = system: IGROV1 ovarian
MDA-MB-231 breast = system: MDA-MB-231 breast
OVCAR-4 ovarian = system: OVCAR-4 ovarian
HS 578T breast = system: HS 578T breast
NCI-H226 lung = system: NCI-H226 lung
HOP-62 NSCLC = system: HOP-62 NSCLC
NCI-H460 lung = system: NCI-H460 lung
HL-60(TB) leukemia = system: HL-60(TB) leukemia
KM12 colon = system: KM12 colon
U251 CNS = system: U251 CNS
MCF7 breast = system: MCF7 breast
CCRF-CEM leukemia = system: CCRF-CEM leukemia
PC-3 prostate = system: PC-3 prostate
A498 renal = system: A498 renal
SW-620 colon = system: SW-620 colon
SK-OV-3 ovarian = system: SK-OV-3 ovarian
RPMI-8226 leukemia = system: RPMI-8226 leukemia
ACHN renal = system: ACHN renal
NCI-H522 lung = system: NCI-H522 lung
MALME-3M melanoma = system: MALME-3M melanoma
SNB-19 CNS = system: SNB-19 CNS
MDA-N = system: MDA-N
SF-268 CNS = system: SF-268 CNS
K-562 leukemia = system: K-562 leukemia
EKVX NSCLC = system: EKVX NSCLC
CAKI-1 renal = system: CAKI-1 renal
RXF 393 renal = system: RXF 393 renal
SK-MEL-28 melanoma = system: SK-MEL-28 melanoma
BT-549 breast = system: BT-549 breast
MOLT-4 leukemia = system: MOLT-4 leukemia
SR leukemia = system: SR leukemia
SN12C renal = system: SN12C renal
M14 melanoma = system: M14 melanoma
UO-31 renal = system: UO-31 renal
HCT-15 colon = system: HCT-15 colon
OVCAR-8 ovarian = system: OVCAR-8 ovarian
SNB-75 CNS = system: SNB-75 CNS
TK-10 renal = system: TK-10 renal
NCI-H23 lung = system: NCI-H23 lung
UACC-257 melanoma = system: UACC-257 melanoma
UACC-62 melanoma = system: UACC-62 melanoma
HCC-2998 colon = system: HCC-2998 colon
SF-539 CNS = system: SF-539 CNS
NCI/ADR-RES ovarian = system: NCI/ADR-RES ovarian
DMS 273 small cell lung = system: DMS 273 small cell lung
SNB-78 CNS = system: SNB-78 CNS
LOX IMVI melanoma = system: LOX IMVI melanoma
DMS 114 small cell lung = system: DMS 114 small cell lung
M19-MEL melanoma = system: M19-MEL melanoma
KM20L2 colon = system: KM20L2 colon

## CCOC(=O)Nc1cc2ccccc2c(N=Nc2ccccc2)c1O
COLO 205 colon
  TGI: > 100 µM
OVCAR-3 ovarian
  TGI: > 100 µM
T-47D breast
  TGI: > 100 µM
SK-MEL-2 melanoma
  TGI: > 100 µM
SK-MEL-5 melanoma
  TGI: > 100 µM
SF-295 CNS
  TGI: > 100 µM
786-0 renal
  TGI: > 100 µM
HT29 colon
  TGI: > 100 µM
MDA-MB-435
  TGI: > 100 µM
HCT-116 colon
  TGI: > 100 µM
A549 NSCLC
  TGI: > 100 µM
DU-145 prostate
  TGI: > 100 µM
OVCAR-5 ovarian
  TGI: > 100 µM
HOP-92 NSCLC
  TGI: > 100 µM
IGROV1 ovarian
  TGI: > 100 µM
MDA-MB-231 breast
  TGI: > 100 µM
OVCAR-4 ovarian
  TGI: 49.3 µM
HS 578T breast
  TGI: > 100 µM
NCI-H226 lung
  TGI: > 100 µM
HOP-62 NSCLC
  TGI: > 100 µM
NCI-H460 lung
  TGI: > 100 µM
HL-60(TB) leukemia
  TGI: > 100 µM
KM12 colon
  TGI: > 100 µM
U251 CNS
  TGI: > 100 µM
MCF7 breast
  TGI: > 100 µM
CCRF-CEM leukemia
  TGI: > 100 µM
PC-3 prostate
  TGI: > 100 µM
A498 renal
  TGI: > 100 µM
SW-620 colon
  TGI: > 100 µM
SK-OV-3 ovarian
  TGI: > 100 µM
RPMI-8226 leukemia
  TGI: > 100 µM
ACHN renal
  TGI: > 100 µM
NCI-H522 lung
  TGI: > 100 µM
MALME-3M melanoma
  TGI: > 100 µM
SNB-19 CNS
  TGI: > 100 µM
MDA-N
  TGI: > 100 µM
SF-268 CNS
  TGI: > 100 µM
K-562 leukemia
  TGI: > 100 µM
EKVX NSCLC
  TGI: > 100 µM
CAKI-1 renal
  TGI: > 100 µM
RXF 393 renal
  TGI: 69.4 µM
SK-MEL-28 melanoma
  TGI: > 100 µM
BT-549 breast
  TGI: > 100 µM
MOLT-4 leukemia
  TGI: > 100 µM
SR leukemia
  TGI: > 100 µM
SN12C renal
  TGI: > 100 µM
M14 melanoma
  TGI: > 100 µM
UO-31 renal
  TGI: > 100 µM
HCT-15 colon
  TGI: > 100 µM
OVCAR-8 ovarian
  TGI: > 100 µM
SNB-75 CNS
  TGI: > 100 µM
TK-10 renal
  TGI: > 100 µM
NCI-H23 lung
  TGI: > 100 µM
UACC-257 melanoma
  TGI: > 100 µM
UACC-62 melanoma
  TGI: > 100 µM
HCC-2998 colon
  TGI: > 100 µM
SF-539 CNS
  TGI: 35.8 µM
NCI/ADR-RES ovarian
  TGI: > 100 µM

## N#Cc1cccc(C=NC23CC4CC(CC(C4)C2)C3)c1
COLO 205 colon
  TGI: > 100 µM
OVCAR-3 ovarian
  TGI: > 100 µM
SK-MEL-2 melanoma
  TGI: > 100 µM
DMS 273 small cell lung
  TGI: > 100 µM
SNB-78 CNS
  TGI: > 100 µM
SF-295 CNS
  TGI: > 100 µM
786-0 renal
  TGI: > 100 µM
HT29 colon
  TGI: > 100 µM
HCT-116 colon
  TGI: > 100 µM
A549 NSCLC
  TGI: > 100 µM
LOX IMVI melanoma
  TGI: > 100 µM
OVCAR-5 ovarian
  TGI: > 100 µM
HOP-92 NSCLC
  TGI: > 100 µM
IGROV1 ovarian
  TGI: > 100 µM
OVCAR-4 ovarian
  TGI: > 100 µM
NCI-H226 lung
  TGI: > 100 µM
HOP-62 NSCLC
  TGI: > 100 µM
NCI-H460 lung
  TGI: > 100 µM
HL-60(TB) leukemia
  TGI: 42.2 µM
DMS 114 small cell lung
  TGI: > 100 µM
KM12 colon
  TGI: > 100 µM
U251 CNS
  TGI: > 100 µM
CCRF-CEM leukemia
  TGI: > 100 µM
A498 renal
  TGI: > 100 µM
SW-620 colon
  TGI: > 100 µM
SK-OV-3 ovarian
  TGI: > 100 µM
RPMI-8226 leukemia
  TGI: > 100 µM
ACHN renal
  TGI: > 100 µM
NCI-H522 lung
  TGI: > 100 µM
MALME-3M melanoma
  TGI: > 100 µM
SNB-19 CNS
  TGI: > 100 µM
M19-MEL melanoma
  TGI: > 100 µM
SF-268 CNS
  TGI: > 100 µM
K-562 leukemia
  TGI: > 100 µM
EKVX NSCLC
  TGI: > 100 µM
CAKI-1 renal
  TGI: > 100 µM
RXF 393 renal
  TGI: > 100 µM
SK-MEL-28 melanoma
  TGI: > 100 µM
KM20L2 colon
  TGI: > 100 µM
MOLT-4 leukemia
  TGI: > 100 µM
SR leukemia
  TGI: > 100 µM
SN12C renal
  TGI: > 100 µM
M14 melanoma
  TGI: > 100 µM
UO-31 renal
  TGI: > 100 µM
HCT-15 colon
  TGI: > 100 µM
OVCAR-8 ovarian
  TGI: > 100 µM
TK-10 renal
  TGI: > 100 µM
NCI-H23 lung
  TGI: > 100 µM
UACC-257 melanoma
  TGI: > 100 µM
UACC-62 melanoma
  TGI: > 100 µM
HCC-2998 colon
  TGI: > 100 µM
SF-539 CNS
  TGI: > 100 µM

Reference: PubChem BioAssay (NCI)
